Our source for the T/C values is PubChem BioAssay AID256 (DTP/NCI, 2004).

For this test, the system named is CD2F1 mice, L1210 leukemia ip, survival T/C. The experiment in a line: NCI In Vivo Anticancer Drug Screen. Data for tumor model L1210 Leukemia (intraperitoneal) in CD2F1 (CDF1) mice. As to conditions: endpoint: mean survival time, higher = longer survival. The essentials:
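Antitumor effect is scored in animals hosting a serially transplanted tumor. Values compare compound-dosed animals against vehicle-only controls as a simple quotient.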

Where [1] appears, read: dose: 25.0 mg/kg/injection, schedule: Q01DX009 (ip), vehicle: saline with Tween-80.
Setting [2] is: dose: 50.0 mg/kg/injection, schedule: Q01DX009 (ip), vehicle: saline with Tween-80.
The mark [3] stands for this setting: dose: 100.0 mg/kg/injection, schedule: Q04DX003 (ip), vehicle: saline with Tween-80.
[4] abbreviates: dose: 200.0 mg/kg/injection, schedule: Q04DX003 (ip), vehicle: saline with Tween-80.
[5] abbreviates: dose: 400.0 mg/kg/injection, schedule: Q04DX003 (ip), vehicle: saline with Tween-80.
The mark [6] stands for this setting: dose: 100.0 mg/kg/injection, schedule: Q04DX002 (ip), vehicle: saline with Tween-80.
Setting [7] is: dose: 200.0 mg/kg/injection, schedule: Q04DX002 (ip), vehicle: saline with Tween-80.
Setting [8] is: dose: 400.0 mg/kg/injection, schedule: Q04DX002 (ip), vehicle: saline with Tween-80.
[9] abbreviates: dose: 100.0 mg/kg/injection, schedule: Q01DX009 (ip), vehicle: saline with Tween-80.
The mark [10] stands for this setting: dose: 200.0 mg/kg/injection, schedule: Q01DX009 (ip), vehicle: saline with Tween-80.
The mark [11] stands for this setting: dose: 400.0 mg/kg/injection, schedule: Q01DX009 (ip), vehicle: saline with Tween-80.
Setting [12] is: dose: 100.0 mg/kg/injection, schedule: Q04DX003 (ip), vehicle: saline.
Where [13] appears, read: dose: 200.0 mg/kg/injection, schedule: Q04DX003 (ip), vehicle: saline.

Inconclusive results and toxic doses are left out.

Take `CC(=O)Nc1ccc(OCCOC(=O)Nc2ccc(C)c([N+](=O)[O-])c2)cc1`: the T/C (dose: 12.5 mg/kg/injection, schedule: Q01DX009 (ip), vehicle: saline with Tween-80) was 92 % of control; the T/C under setting [1] is 88 % of control; the T/C under setting [2] is 92 % of control.
On to `Cc1ccc2[nH]c(-c3ccccc3)c(-c3ccccc3)c2c1`, for which the T/C runs as follows: under setting [3], 102 % of control; under setting [4], 94 % of control; under setting [5], 96 % of control.
Regarding `OCC1OC(n2ncc3cncnc32)C(O)C1O` (stereo not drawn), the T/C is 94 % of control (dose: 25.0 mg/kg/injection, schedule: Q01DX009 (ip), vehicle: other); 97 % of control (dose: 50.0 mg/kg/injection, schedule: Q01DX009 (ip), vehicle: other); 90 % of control (dose: 100.0 mg/kg/injection, schedule: Q01DX009 (ip), vehicle: other); 97 % of control (dose: 200.0 mg/kg/injection, schedule: Q01DX009 (ip), vehicle: other).
For `O=C(COc1c(Cl)cc(Cl)cc1Cl)Nc1ccc2c(c1)C(=O)c1ccccc1C2=O`, the T/C is 98 % of control (dose: 25.0 mg/kg/injection, schedule: Q04DX002 (ip), vehicle: saline with Tween-80); 98 % of control (dose: 50.0 mg/kg/injection, schedule: Q04DX002 (ip), vehicle: saline with Tween-80); 94 % of control under setting [6].
For the compound `Nc1nc2ccc(CN(C=O)c3ccc(C(=O)NC(CCC(=O)O)C(=O)O)cc3)cc2c(=O)[nH]1` (stereo not drawn), the T/C (dose: 6.25 mg/kg/injection, schedule: Q01DX009 (ip), vehicle: water) was 94 % of control; the T/C (dose: 12.5 mg/kg/injection, schedule: Q01DX009 (ip), vehicle: water) is 102 % of control; the T/C (dose: 25.0 mg/kg/injection, schedule: Q01DX009 (ip), vehicle: water) is 105 % of control; the T/C (dose: 50.0 mg/kg/injection, schedule: Q01DX009 (ip), vehicle: water) was 107 % of control; the T/C (dose: 100.0 mg/kg/injection, schedule: Q01DX009 (ip), vehicle: water) was 119 % of control; the T/C (dose: 200.0 mg/kg/injection, schedule: Q01DX009 (ip), vehicle: water) was 107 % of control. Moreover, the T/C (dose: 400.0 mg/kg/injection, schedule: Q01DX009 (ip), vehicle: water) was 100 % of control.
With `CCCCCOC(=O)COc1ccc(F)cc1F`, the T/C is 101 % of control under setting [6], 105 % of control under setting [7] and 90 % of control under setting [8].
With `O=[N+]([O-])O.[Cr+3].[NH2-].[NH2-].[NH2-].[NH2-].[NH2-].[NH2-]`, the T/C is 88 % of control (dose: 6.25 mg/kg/injection, schedule: Q01DX009 (ip), vehicle: saline sonified); 97 % of control (dose: 12.5 mg/kg/injection, schedule: Q01DX009 (ip), vehicle: saline sonified); 90 % of control (dose: 25.0 mg/kg/injection, schedule: Q01DX009 (ip), vehicle: saline sonified).
`CCCCCCCCCCCCCCCCCC[Se]CCCCCCCCCCCCCCCCCC`: the T/C is, setting by setting: under setting [9], 89 % of control; under setting [10], 91 % of control; under setting [11], 95 % of control.
Take `C1CSC(=[N+]2CC[N+](=C3SCCS3)CC2)S1`: the T/C reads like this: (dose: 12.5 mg/kg/injection, schedule: Q01DX009 (ip), vehicle: saline) 101 % of control; (dose: 25.0 mg/kg/injection, schedule: Q01DX009 (ip), vehicle: saline) 104 % of control; (dose: 25.0 mg/kg/injection, schedule: Q04DX002 (ip), vehicle: saline) 100 % of control; (dose: 50.0 mg/kg/injection, schedule: Q04DX002 (ip), vehicle: saline) 88 % of control.
With `CCCCS(CCCC)=NS(=O)(=O)c1ccc(C)cc1`, the T/C was 90 % of control (dose: 50.0 mg/kg/injection, schedule: Q01DX009 (ip), vehicle: Klucel (hydroxypropylcellulose) (HPC)); 94 % of control (dose: 100.0 mg/kg/injection, schedule: Q01DX009 (ip), vehicle: Klucel (hydroxypropylcellulose) (HPC)); 90 % of control (dose: 200.0 mg/kg/injection, schedule: Q01DX009 (ip), vehicle: Klucel (hydroxypropylcellulose) (HPC)).
On to `NCC1OC(CO)C(O)C1O` (stereo not drawn), for which the T/C was 91 % of control under setting [12]; 100 % of control under setting [13]; 104 % of control (dose: 400.0 mg/kg/injection, schedule: Q04DX003 (ip), vehicle: saline).
As to `CC(C)(CO)CN1CCCCC1`, the T/C under setting [3] was 101 % of control and the T/C under setting [4] was 93 % of control.
Regarding `O=C(CCl)Cc1ccccc1`, the T/C (dose: 50.0 mg/kg/injection, schedule: Q04DX003 (ip), vehicle: saline) was 98 % of control; the T/C (dose: 100.0 mg/kg/injection, schedule: Q01DX001 (ip), vehicle: saline) is 104 % of control; the T/C under setting [12] was 92 % of control; the T/C (dose: 200.0 mg/kg/injection, schedule: Q01DX001 (ip), vehicle: saline) is 103 % of control; the T/C under setting [13] was 101 % of control.
Turning to `C=CCNC(=O)/C=C/C(=O)NCC=C`, the T/C was 97 % of control under setting [1], 97 % of control under setting [2], 101 % of control under setting [9] and 97 % of control under setting [3].
In the case of `O=C(NO)c1cc(Br)cc(Br)c1O`, the T/C reads like this: under setting [6], 96 % of control; under setting [7], 92 % of control; under setting [8], 103 % of control.
For `COc1ccc(CCNC(=O)Cc2cc(OC)c(OC)cc2Br)cc1OC`, the T/C reads like this: under setting [3], 94 % of control; under setting [4], 100 % of control; under setting [5], 96 % of control.
As for `Cc1c(C(=O)O)nc(CC(O)C(Cl)(Cl)Cl)[nH]c1=O` (stereo not drawn), the T/C reads like this: (dose: 25.0 mg/kg/injection, schedule: Q01DX005 (ip), vehicle: other) 106 % of control; (dose: 50.0 mg/kg/injection, schedule: Q01DX005 (ip), vehicle: other) 101 % of control; (dose: 100.0 mg/kg/injection, schedule: Q01DX005 (ip), vehicle: other) 101 % of control; (dose: 200.0 mg/kg/injection, schedule: Q01DX005 (ip), vehicle: other) 103 % of control; (dose: 400.0 mg/kg/injection, schedule: Q01DX005 (ip), vehicle: other) 95 % of control.
On to `CC1CCC2CCCCC2[N-]1.CC1CCC2CCCCC2[N-]1.[Cl][Pt+2][Cl]` (stereo not drawn), for which the T/C is 96 % of control (dose: 25.0 mg/kg/injection, schedule: Q04DX003 (ip), vehicle: saline with Tween-80); 94 % of control (dose: 50.0 mg/kg/injection, schedule: Q04DX003 (ip), vehicle: saline with Tween-80); 94 % of control under setting [3]; 88 % of control under setting [5].
Regarding `c1nc(Sc2ncnc3nc[nH]c23)c2[nH]cnc2n1`, the T/C was 123 % of control (dose: 75.0 mg/kg/injection, schedule: Q01DX009 (ip), vehicle: saline with Tween-80) and 169 % of control (dose: 300.0 mg/kg/injection, schedule: Q01DX009 (ip), vehicle: saline with Tween-80).
Take `COc1ccc(/C=C/C(=O)c2ccccc2)cc1Br`: the T/C is 104 % of control under setting [9]; 97 % of control under setting [3]; 98 % of control under setting [10]; 98 % of control under setting [4]; 101 % of control under setting [11]; 95 % of control under setting [5].
Turning to `CN(C)c1ccc(-c2cc(C(=O)O)c3cc(I)ccc3n2)c(Cl)c1`, the T/C (dose: 75.0 mg/kg/injection, schedule: Q01DX009 (ip), vehicle: saline) was 100 % of control; the T/C (dose: 75.0 mg/kg/injection, schedule: Q04DX003 (ip), vehicle: saline) was 92 % of control; the T/C (dose: 150.0 mg/kg/injection, schedule: Q01DX009 (ip), vehicle: saline) is 94 % of control; the T/C (dose: 150.0 mg/kg/injection, schedule: Q04DX003 (ip), vehicle: saline) is 93 % of control; the T/C (dose: 300.0 mg/kg/injection, schedule: Q01DX009 (ip), vehicle: saline) is 98 % of control; the T/C (dose: 300.0 mg/kg/injection, schedule: Q04DX003 (ip), vehicle: saline) is 110 % of control.
Turning to `O=C(O)C1CCc2c(cnn2-c2ccc(Cl)cc2)C1` (stereo not drawn), the T/C runs as follows: under setting [6], 96 % of control; under setting [7], 103 % of control; under setting [8], 103 % of control.
`Nc1nc(=S)c2[nH]c(N=Nc3ccc(S(N)(=O)=O)cc3)nc2[nH]1`: the T/C (dose: 50.0 mg/kg/injection, schedule: Q04DX003 (ip), vehicle: Klucel (hydroxypropylcellulose) (HPC)) is 123 % of control.
